Results from the NIST ThermoML archive (doi:10.1016/j.tca.2014.03.030).
Numbers after ± are expanded uncertainties.

Legend:
[1] = DTA
[2] = Molar enthalpy of transition or fusion

Row | Normal melting temperature ([1]; Crystal) | Molar enthalpy of transition or fusion ([2]; Crystal) | Normal melting temperature ([1]; Crystal 1) | Molar enthalpy of transition or fusion ([2]; Crystal 1) | Compound
1 | 91.39 ± 2.1 °C | 6.69 ± 0.382 kcal/mol |  |  | CCCCCCCCCCCC(=O)NCCc1ccc(O)cc1 [N-[2-(4-hydroxyphenyl)ethyl]dodecanamide]
2 | 81.47 ± 2.1 °C | 5.08 ± 0.311 kcal/mol |  |  | CCCCCCCCCC(=O)NCCc1ccc(O)cc1 [N-[2-(4-hydroxyphenyl)ethyl]decanamide]
3 |  |  | 103.76 ± 2.1 °C | 11.8 ± 0.645 kcal/mol | CCCCCCCCCCCCCCCC(=O)NCCc1ccc(O)cc1 [N-[2-(4-hydroxyphenyl)ethyl]hexadecanamide]
4 |  |  | 98.1 ± 2.1 °C | 10.4 ± 0.574 kcal/mol | CCCCCCCCCCCCCC(=O)NCCc1ccc(O)cc1 [N-[2-(4-hydroxyphenyl)ethyl]tetradecanamide]
